{"source": "paper PMC4828713", "about": "“New potential binding determinant for hERG channel inhibitors” (Scientific Reports, 2016)", "key": {"Y652A-hERG": {"biological_target": "Y652A-hERG (Homo sapiens, UniProt Q12809, Y652A)", "conditions": "pH 7.4", "source_text": "(§1) For hERG measurements, the oocytes were clamped at a holding potential of −100 mV and depolarized to +20 mV allowing activation and inactivation. […] Channel block was estimated from tail current inhibition."}, "[1]": {"biological_target": "wild type hERG (WT) channels (Homo sapiens, UniProt Q12809)", "conditions": "pH 7.4", "source_text": "as §1"}}, "data": [{"smiles": "O=C(CCCN1CCC(O)(c2ccc(Cl)cc2)CC1)c1ccc(F)cc1", "note": "[Haloperidol, haloperidol]", "values": [{"measurement": "Y652A-hERG nH (hill coefficient)", "setting": "Y652A-hERG", "result": "1 ± 0.04"}, {"measurement": "Y652A-hERG ∆IC50", "setting": "Y652A-hERG", "result": 31.4}, {"measurement": "WT nH (hill coefficient)", "setting": "[1]", "result": "1.3 ± 0.1"}]}]}
